Experimental data: patent US12291504B2 (University of Pittsburgh—Of the Commonwealth System of …, priority 2018, dated 2025)
Where two headings read alike, the source gives them in different places.

How the values were obtained:
SULT1A1 = SULT1A1 (Homo sapiens, UniProt P50225); assay: SULT1A1 inhibition, 1-HP initial-rate assay; type: biochemical; conditions: ND = inhibition was not detected at 30 μM compound, parentheses one standard error; for inhibition: read-out: SULT1A1 Enzyme Inhibition at Saturation/%
Description: (§1) Inhibition studies. Inhibition parameters were determined under conditions identical to those described above (see, Initial-Rate Studies) except that [1-HP] was increased to 5.0 μM (˜61×Km) and inhibitor concentration was varied between 0.20-20×Ki. Ki was obtained using a least-squares fit to the following partial inhibition equation (25,28): v=kcat·(Ki+(1/kcat inh)·[I])/(Ki+[I]), where kcat inh is enzyme turnover at saturating substrates and allosteric inhibitor.
as §1, with “(47,50): V/Vax=(Ki+α·[I])/(Ki+[I]),” for “(25,28): v=kcat·(Ki+(1/kcat inh)·[I])/(Ki+[I]),”, “α” for “kcat inh”, “is percentage of” for “is”, “turnover remaining” for “turnover”

SULT1A3 [1] = biological target: T1, SULT1A3 (Homo sapiens, UniProt P0DMM9); assay: SULT1A3 inhibition studies, 1-HP initial-rate fluorescence assay; type: biochemical; set-up: Wild-type and mutant SULT1A3 coding regions were inserted into a pGEX-6P expression vector; N-His/GST/MBP triple-tag (N, cleaved yes); made in house; host or cells: E. coli BL21(DE3); inhibition: dose or concentration left out as unconfirmed; conditions: for inhibition: read-out: SULT1A3 Enzyme Inhibition at Saturation/%
Description: The initial rates of SULT catalyzed 1-HP sulfonation are plotted as a function of inhibitor concentration, and are normalized relative to [inhibitor]=0. Enzyme activity was monitored by the sulfonation dependent change in 1-HP fluorescence (λex=325 nm, λem=370 nm). Less than 5% of the concentration-limiting substrate converted at the reaction endpoint was consumed during initial-rate measurements. Each point is the average of three independent determinations. Conditions: SULT (20 nM, active sites), PAPS (0.50 mM, 17×Km), 1-HP (5.0 μM, 61×Km), KPO4 (50 mM), pH 7.5, 25±2° C.
(§2) Initial-Rate Studies. Initial-rate parameters for the labeled or mutant SULT1A3 constructs were determined using a previously described 1-HP assay (25). Briefly, reactions were initiated by addition of PAPS (0.50 mM, 17×Km) to a solution containing enzyme (20 nM, active sites), 1-HP (2.0 μM, ˜24×Km), and KPO4 (50 mM), pH 7.5, 25±2° C. Reactions were monitored via fluorescence change associated with the conversion of 1-HP to 1-HP-S (λex=325 nm, λem=370 nm). Keq for the 1-HP sulfonation reaction is −250. Given the reaction conditions outlined above, ≥99% of 1-HP is converted to 1-HP-S, and ˜0.4% of PAPS is converted to PAP at equilibrium. […] Reaction progress curves were analyzed to obtain initial-rate parameters as described previously (26,27).
as §1
as §2, with “(47).” for “(25).”, “˜250.” for “−250.”, “(48,49).” for “(26,27).”
as §1, with “(47,50): V/Vax=(Ki+α·[I])/(Ki+[I]),” for “(25,28): v=kcat·(Ki+(1/kcat inh)·[I])/(Ki+[I]),”, “α” for “kcat inh”, “is percentage of” for “is”, “turnover remaining” for “turnover”

Rat (1D1) = biological target: T2, Rat (1D1) (Rattus norvegicus, UniProt G3V9R3); assay: Inhibition of SULT1A3 homologues in different species: Rat; type: biochemical
T2 sequence (G3V9R3 1-295): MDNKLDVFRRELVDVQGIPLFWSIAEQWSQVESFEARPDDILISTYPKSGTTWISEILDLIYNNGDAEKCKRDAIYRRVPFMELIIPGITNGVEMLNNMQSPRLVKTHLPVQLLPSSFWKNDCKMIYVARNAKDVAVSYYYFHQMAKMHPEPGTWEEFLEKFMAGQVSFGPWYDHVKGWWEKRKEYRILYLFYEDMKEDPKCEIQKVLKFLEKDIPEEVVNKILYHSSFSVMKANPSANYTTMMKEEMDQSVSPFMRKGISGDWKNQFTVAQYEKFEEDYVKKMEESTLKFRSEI
Description: (§3) Compounds 12, 23 and 25 were also tested for Inhibition of SULT1A3 in different species.
(§4) Inhibition of SULT1A3 Homologues in Different Species. SULT1A3 is only expressed in humans and higher primates. SULT1D1 is the isoform expressed in dogs and rodents that sulfonates neurotransmitters and is most similar to SULT1A3. Three synthesized allosteres (12, 23, and 25) were tested against both 1A3 and 1D1 from different species in order to explore testing in animal models. […] Mice have been engineered such that their SULT1A1/2 enzymes have been knocked out and replaced with the human versions of those isoforms.

Rhesus Macaque (1A3) = Rhesus Macaque (1A3) (Macaca mulatta, UniProt A0A5F7ZQH3); assay: Inhibition of SULT1A3 homologues in different species: Rhesus Macaque; type: biochemical
Description: as §3, §4

Dog (1D1) = Dog (1D1) (Canis lupus familiaris, UniProt A0A8I3RXJ1); assay: Inhibition of SULT1A3 homologues in different species: Dog; type: biochemical
Description: as §4, with “Compounds 12, 23 and 25 were also tested for Inhibition of SULT1A3 in different species. Inhibition” for “Inhibition”

Mouse (1D1) = Mouse (1D1) (Mus musculus, UniProt Q3UZZ6); assay: Inhibition of SULT1A3 homologues in different species: Mouse; type: biochemical
Description: as §3, §4

Green Monkey (1A3) = Green Monkey (1A3) (Chlorocebus sabaeus, UniProt Z9LO20H8W3); assay: Inhibition of SULT1A3 homologues in different species: Green Monkey; type: biochemical
Description: as §3, §4

SULT1A3 [2] = biological target: T1, SULT1A3; assay: Pre-steady state binding of PAP to SULT1A3 (stopped-flow fluorescence); set-up: Wild-type and mutant SULT1A3 coding regions were inserted into a pGEX-6P expression vector; N-His/GST/MBP triple-tag (N, cleaved yes); made in house; host or cells: E. coli BL21(DE3)
Description: The effect of CMP8 on PAP binding to SULT1A3 was monitored using a stopped-flow spectrofluorimeter (λex=290 nm, λem≥330 nm (cutoff filter)). […] Each kobs value was determined in triplicate and the averaged values are shown. kon and koff are given, respectively, by the slopes and intercepts obtained from linear least-squares fitting of the kobs vs [PAP] plots.
(§5) Pre-Steady State Binding Studies. The pre-steady state binding of PAP to SULT1A3 was monitored via ligand-induced enzyme fluorescence changes in SULT1A3 using an Applied Photophysics SX20 stopped-flow spectrofluorimeter (32). […] All reactions were pseudo first order in [PAP]. The observed rate constant (kobs) at a given [PAP] was taken as the average of three independent progress curves each obtained from a single-exponential fit of 6-9 averaged, binding progress curves. The rate constants, kon and koff, were obtained from the slopes and intercepts predicted by linear least-squares analysis of four-points kobs vs [PAP] plots.
Given that CMP8 interacts with the SULT1A3 cap, it was reasoned it might inhibit by stabilizing the cap-closed form(s) of the enzyme. To test this hypothesis, the microscopic rate constants for nucleotide binding and release were determined in the presence and absence of saturating CMP8. The binding reactions were monitored via intrinsic fluorescence changes associated with ligand binding (30-32) (see, Methods). The resulting kobs vs [PAP] plots are presented in FIG. 4. kon and koff are obtained, respectively, from the slopes and intercepts of the plots (30,31), see Table C. […] Thus, CMP8 does indeed slow nucleotide release by increasing Kiso and thus stabilizing the closed form of the cap.
as §5, with “(29).” for “(32).”

[3] = ND = inhibition was not detected at 30 μM compound, parentheses one standard error, read-out: SULT1A3 Ki/μM
[4] = saturating CMP8 (1.7 μM, 50×Kd)

T1 sequence (P0DMM9 whole entry): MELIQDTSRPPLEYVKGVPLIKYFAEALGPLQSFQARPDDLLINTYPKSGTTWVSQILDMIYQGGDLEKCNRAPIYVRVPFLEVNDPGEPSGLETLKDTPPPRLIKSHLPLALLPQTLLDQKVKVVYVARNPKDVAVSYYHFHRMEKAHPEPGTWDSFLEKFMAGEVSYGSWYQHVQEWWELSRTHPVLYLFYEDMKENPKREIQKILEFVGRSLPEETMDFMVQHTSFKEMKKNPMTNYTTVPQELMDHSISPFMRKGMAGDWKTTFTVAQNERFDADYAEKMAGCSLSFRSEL
Chain of SULT1A1 (P50225 whole entry): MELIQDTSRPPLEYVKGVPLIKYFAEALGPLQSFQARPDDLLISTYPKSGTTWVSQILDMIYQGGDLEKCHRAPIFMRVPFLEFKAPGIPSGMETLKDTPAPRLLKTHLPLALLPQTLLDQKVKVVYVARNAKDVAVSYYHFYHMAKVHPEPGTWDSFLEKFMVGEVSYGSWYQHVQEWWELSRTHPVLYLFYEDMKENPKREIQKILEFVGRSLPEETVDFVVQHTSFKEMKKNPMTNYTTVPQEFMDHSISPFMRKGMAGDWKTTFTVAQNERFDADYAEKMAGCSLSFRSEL
Chain of Rhesus Macaque (1A3) (A0A5F7ZQH3 1-295): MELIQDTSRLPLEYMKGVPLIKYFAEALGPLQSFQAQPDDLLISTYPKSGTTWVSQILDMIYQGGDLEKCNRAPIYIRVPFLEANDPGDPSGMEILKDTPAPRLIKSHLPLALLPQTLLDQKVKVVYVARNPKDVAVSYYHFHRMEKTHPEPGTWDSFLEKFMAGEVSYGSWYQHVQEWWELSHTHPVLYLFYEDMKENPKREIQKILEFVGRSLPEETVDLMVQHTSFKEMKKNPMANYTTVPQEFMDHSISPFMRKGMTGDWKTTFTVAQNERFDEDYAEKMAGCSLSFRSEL
Chain of Mouse (1D1) (Q3UZZ6 whole entry): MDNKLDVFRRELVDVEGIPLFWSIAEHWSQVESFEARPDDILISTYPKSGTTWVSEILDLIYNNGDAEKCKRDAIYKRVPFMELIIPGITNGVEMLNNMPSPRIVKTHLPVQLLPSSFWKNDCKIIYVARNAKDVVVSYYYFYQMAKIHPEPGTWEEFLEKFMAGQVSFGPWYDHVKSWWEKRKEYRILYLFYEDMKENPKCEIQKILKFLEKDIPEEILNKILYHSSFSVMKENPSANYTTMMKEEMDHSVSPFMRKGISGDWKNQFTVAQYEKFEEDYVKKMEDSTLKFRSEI
Chain of Green Monkey (1A3) (Z9LO20H8W3 1-295): as the sequence (A0A5F7ZQH3 1-295) above, with T7A, M15V, Y23C, K230R, F247Y, E278A counted along it
Chain of Dog (1D1) (A0A8I3RXJ1 entry or part of it): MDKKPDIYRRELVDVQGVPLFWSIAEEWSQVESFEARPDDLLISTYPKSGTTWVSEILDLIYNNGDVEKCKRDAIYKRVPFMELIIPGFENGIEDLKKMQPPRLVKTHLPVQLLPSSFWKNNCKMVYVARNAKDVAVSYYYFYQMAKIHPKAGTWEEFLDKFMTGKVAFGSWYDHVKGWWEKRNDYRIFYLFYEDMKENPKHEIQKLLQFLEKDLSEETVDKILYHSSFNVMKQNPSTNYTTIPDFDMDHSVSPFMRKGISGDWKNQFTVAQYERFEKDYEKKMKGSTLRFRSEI

Ki (SULT1A1)	inhibition (SULT1A1)	Ki (SULT1A3 [1]; [3])	inhibition (SULT1A3 [1]; parentheses one standard error)	SMILES	further results
5.7 µM	10%	6.1 µM	10%	COCc1ccc2nc(CC(C)C)ccc2c1 [Compound 3, 2-Isobutyl-6-(methoxymethyl)quinolone]	
7.7 µM	20%	7.5 µM		Cc1nc2ccc(CO)cc2cc1CC(C)C [Compound 4]	
5.1 µM	67%	1.3 µM	51%	CCCCNC(=O)c1ccc2nc(CC(C)C)ccc2c1 [Compound 7, N-Butyl-2-isobutylquinoline-6-carboxamide]	
		0.33 µM	63%	CCOC(=O)CCc1ccc2cc(CCC(N)=O)ccc2n1 [Compound 9, Ethyl 3-(6-(3-amino-3-oxopropyl)quinolin-2-yl)propanoate]	
		0.86 µM	78%	CC(C)Cc1ccc2cc(C(N)=O)ccc2n1 [Compound 11, 2-Isobutylquinoline-6-carboxamide]	
6.2 µM	48%	0.19 µM	65%	CC(C)Cc1ccc2cc(/C=C/C(N)=O)ccc2n1 [Compound 13, (E)-3-(2-Isobutylquinolin-6-yl)acrylamide]	
2.5 µM	40%			CC(C)(C)Cc1ccc2cc(CO)ccc2n1 [Compound 18]	

Continued, compound first:

SMILES	Ki (SULT1A1)	inhibition (SULT1A1)	Ki (SULT1A3 [1]; [3])	inhibition (SULT1A3 [1]; parentheses one standard error)	further results
CCCn1cc(-c2ccc3ncccc3c2)nn1 [Compound 5, 6-(1-Propyl-1H-1,2,3-triazol-4-yl)quinoline]	4.7 µM	53%	3.1 µM	33%	
COC(=O)c1ccc2nc3c(cc2c1)C(=O)CC(C)C3 (centres unmarked) [Compound 6, Methyl 6-methyl-8-oxo-5,6,7,8-tetrahydroacridine-2-carboxylate]			0.66 µM	35%	
O=C(O)/C=C/c1ccc2ncccc2c1 [Compound 10, (E)-3-(quinolin-6-yl)acrylic acid]	22 µM	30%	4.1 µM	72%	
CCCn1cc(-c2ccc3ccc(O)cc3c2)nn1 [Compound 20]	12.1 µM	17%	2.6 µM	16%	
CC(C)Cc1ccc2cc(/C=C/C(=O)O)cnc2n1 [Compound 24, (E)-3-(7-Isobutylnaphthyridin-3-yl)acrylic acid]			3.1 µM	29.4%	
CC(C)Cc1ccc2cc(CCC(N)=O)cnc2n1 [Compound 25]			0.017 µM	90%	Rat (1D1) % inh (Rat (1D1)): 21 (3) %; Ki (Rat (1D1); parentheses one standard error): 1.1 µM; Rhesus Macaque (1A3) % inh (Rhesus Macaque (1A3)): 95 (2) %; Ki (Rhesus Macaque (1A3); parentheses one standard error): 0.025 µM; Dog (1D1) % inh (Dog (1D1)): 73 (4) %; Ki (Dog (1D1); standard error in neighbouring cell): 0.052 µM; Human (1A3) % inh (SULT1A3 [1]; parentheses one standard error): 90 (3) %; Ki (SULT1A3 [1]; standard error in neighbouring cell, read-out: Human (1A3) Ki): 0.017 µM; Mouse (1D1) % inh (Mouse (1D1)): 91 (2) %; Ki (Mouse (1D1); parentheses one standard error): 0.032 µM; Green Monkey (1A3) % inh (Green Monkey (1A3)): 72 (5) %; Ki (Green Monkey (1A3); parentheses one standard error): 0.087 µM
CC1CC(=O)c2cc3cc(C(N)=O)ccc3nc2C1 (centres unmarked) [Compound 27, 6-Methyl-8-oxo-5,6,7,8-tetrahydroacridine-2-carboxamide]			0.11 µM	75%	
CC1Cc2nc3ccc(C(N)=O)cc3cc2C(O)C1 (centres unmarked) [Compound 28, 8-Hydroxy-6-methyl-5,6,7,8-tetrahydroacridine-2-carboxamide]			0.085 µM	52%	
Nc1ncnc2c1ncn2[C@@H]1O[C@H](COP(=O)(O)O)[C@@H](OP(=O)(O)O)[C@H]1O [PAP]					koff (s^−1), (−) CMP8 (SULT1A3 [2]; nucleotide binding to SULT1A3 without CMP8): 2.7 (0.1) s^−1; kon (μM^−1s^−1), (−) CMP8 (SULT1A3 [2]; nucleotide binding to SULT1A3 without CMP8, parentheses standard error): 6.6 (0.2)^a μM^−1s^−1; koff (s^−1), (+) CMP8 (SULT1A3 [2]; [4]): 1.1 (0.1) s^−1; kon (μM^−1s^−1), (+) CMP8 (SULT1A3 [2]; [4]): 6.3 (0.3) μM^−1s^−1
